# PubChem BioAssay (NCI)
#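 Results reflect a 48-hour exposure of cells in 96-well plates to compound at five concentrations. At the GI50, growth is halved. TGI marks complete inhibition of growth.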
# Assays:
# Assay in all cases: NCI anticancer screen, dose series, 48 h
# [1] = system: 786-0 renal
# [2] = system: SK-MEL-2 melanoma
# [3] = system: IGROV1 ovarian
# [4] = system: SW-620 colon
# [5] = system: K-562 leukemia
# [6] = system: M14 melanoma
# [7] = system: OVCAR-3 ovarian
# [8] = system: NCI-H226 lung
# [9] = system: RPMI-8226 leukemia
# [10] = system: HS 578T breast
SMILES,GI50 [1] [µM],TGI [1] [µM],GI50 [2] [µM],TGI [2] [µM],GI50 [3] [µM],TGI [3] [µM],GI50 [4] [µM],TGI [4] [µM],GI50 [5] [µM],TGI [5] [µM],GI50 [6] [µM],TGI [6] [µM],GI50 [7] [µM],TGI [7] [µM],GI50 [8] [µM],TGI [8] [µM],GI50 [9] [µM],TGI [9] [µM],GI50 [10] [µM],TGI [10] [µM]
CCN1C(=O)CCCc2c1ccc(Nc1ncc(Cl)c(NC3[C@@H](C(N)=O)[C@@H]4C=C[C@H]3C4)n1)c2OC (stereo not given in full),1.87,9.12,1.44,3.79,1.46,3.96,0.564,3.48,2.16,> 74.6,0.77,2.32,2.14,10.6,1.56,12.7,0.976,4.26,1.88,8.26
ON(Cc1ccccc1)C(=S)c1ccccc1,–,> 100,–,> 100,–,> 100,–,> 100,–,> 100,–,55.6,–,> 67,–,93,–,> 100,–,> 100
N[C@@H]1C(=O)N2C(C(=O)OC(c3ccccc3)c3ccccc3)=C(CCl)CS[C@H]12,39.3,98.9,54.2,> 100,47.4,> 100,36.6,> 100,15.4,> 89.2,34.8,> 96.2,26,75.6,55.2,> 100,16.8,50.8,46.8,> 100
NC1=NC(c2ccc(Cl)cc2)N(c2ccc(S(N)(=O)=O)cc2)C(N)=N1 (stereo not given),–,> 100,–,> 100,–,> 100,–,> 100,–,> 100,–,> 100,–,> 100,–,> 100,–,> 100,–,> 100
Brc1ccc2[nH]cc(-c3nc(-c4c[nH]c5ncccc45)cs3)c2c1,1.88,4.49,7.11,20.3,3.17,23,3.79,14.1,2.71,> 100,2.7,8.6,5.48,18.6,5.02,21.7,4.82,63.9,10.7,> 100
COc1ccc(C(c2ccc(OCCN(C)C)cc2)c2cc3ccccc3c3ccccc23)cc1 (stereo not given),1.51,2.91,1.54,2.97,1.68,3.3,1.69,3.31,1.49,3.41,1.73,3.25,1.66,3.07,3.43,15.4,1.93,4.25,1.66,3.62
COC1=C(C)C(=O)c2c(c(CCCl)c3n2CCC3O)C1=O (stereo not given),0.81,6.5,0.376,1.57,2.59,12.4,1.09,15.8,2.21,> 40.7,0.264,1.21,2.19,6.72,0.764,5.5,3.08,21.8,1.06,6.65
Oc1ccc(-c2nc3ccc4[nH]ncc4c3c3c2CCCC3)c(F)c1,2.5,12.1,1.01,2.93,2.8,12.4,1.41,8.29,2.71,21,1.07,12,2.89,7.85,5.26,69.9,1.8,10.7,2.35,8.98
COc1cccc(CSCC(=O)O)c1,–,> 100,–,> 100,–,> 100,–,> 100,–,> 100,–,> 100,–,> 100,–,> 100,–,> 100,–,> 100
COC(=O)C1OC2(CCCC3CC32)O[C@H]1C(=O)OC (stereo not given in full),–,> 100,–,> 100,–,> 100,–,> 100,–,> 100,–,> 100,–,> 100,–,> 100,–,> 100,–,> 100
COc1cccc(-c2nn(-c3ccccc3)cc2-c2ccnc(NCCNC(=O)Nc3cccc(C(F)(F)F)c3)c2)c1,1.93,4.39,1.69,3.6,2.88,9.34,1.91,3.81,2.13,4.83,2.79,10.6,1.99,4.32,2.07,5.32,2.23,5.54,1.99,5.2
CC1=CC(=O)C(C(C)C)=CC1=Nc1cc(Br)c(O)c(Br)c1,5.03,17.8,8.94,30.1,4.68,20.2,4.18,15.4,3.92,13.4,2.52,7.52,2.68,7.47,3.87,19.3,4.51,27.5,2.76,21.1
CCOC(=O)c1c(C)n(Cc2ccccc2)c2c1cc(O)c1[nH]c(Cc3ccccc3)nc12,20.2,72,26.7,> 100,15.8,> 57.7,22.1,> 60,0.679,> 40,> 50.7,> 100,11.4,44,12.1,> 75.9,11.5,> 100,9.53,> 57.8
COc1ccc(/C=c2\sc3n(c2=O)C2C(NN=3)N(C)C(=O)N2C)cc1 (stereo not given),0.492,> 100,2.31,> 100,1.32,> 100,0.747,> 100,0.331,> 100,0.344,5.17,0.481,3.53,1.18,> 100,0.455,> 19.6,0.659,8.96
N#Cc1c(Br)n(C2OC(CO)C(O)C2O)c2ncnc(N)c12 (stereo not given),6.45,> 100,5.3,14.1,0.333,1.76,0.74,32.7,1.07,> 47.4,2.18,17.8,1.6,34.1,9.16,> 100,1.26,6.69,0.696,8.54
CCCCCCNC(=O)Oc1ccc(/C(=C(/C)Cc2ccc(OC)cc2)c2ccc(OCCCN(C)C)cc2)cc1,13.1,28.4,18.5,34,16.3,32.7,16.4,31.2,3.74,19.1,12.3,26.1,15.2,29.3,19.4,36,15.9,35,15.5,35.7
CCC(c1ccc(OC)cc1)C(CC)c1ccc(O)c(CN2CCN(C)CC2)c1 (stereo not given),3.4,10.9,2.85,6.46,5.4,18,3.15,10,2.71,14.8,1.99,3.8,4.1,14.3,12.4,30.8,2.92,9.5,3.08,9.56
Cc1ccc(-c2c3c(nn2-c2ccc(S(N)(=O)=O)cc2)-c2ccccc2C3)cc1,15.2,31.8,12.2,26.6,3.27,16,4.4,17,16.2,53.9,19.2,37.6,15.6,30,16.5,44,18.4,60.2,13.5,36.2
O=C(CN1CCN(c2cc3c(cc2F)c(=O)c(C(=O)O)cn3C2CC2)CC1)Nc1nc(-c2ccc(Cl)cc2)cs1,4.24,> 100,3.12,21,7.91,> 100,3.48,16.7,2.95,> 100,4.54,28.6,3.51,17.3,5,> 100,3.21,> 100,7.19,73.7
Cc1cn(C2C=CC(CO)O2)c(=O)[nH]c1=O (stereo not given),–,> 1000,–,> 1000,–,> 1000,–,> 1000,–,> 1000,–,> 1000,–,> 1000,–,> 1000,–,> 1000,–,> 1000
